Measured values reported in PubChem BioAssay (NCI).
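Assay format: 96-well plates, 48-hour exposure. GI50 marks 50% less growth. The concentration for full growth arrest is given as TGI.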

Legend:
Experiment in all cases: inhibition of tumour cell growth, NCI panel, 48 h
HOP-92 NSCLC = system: HOP-92 NSCLC
NCI-H226 lung = system: NCI-H226 lung
HS 578T breast = system: HS 578T breast
OVCAR-8 ovarian = system: OVCAR-8 ovarian
UO-31 renal = system: UO-31 renal
DU-145 prostate = system: DU-145 prostate
LOX IMVI melanoma = system: LOX IMVI melanoma
HCT-116 colon = system: HCT-116 colon
SK-MEL-2 melanoma = system: SK-MEL-2 melanoma
MALME-3M melanoma = system: MALME-3M melanoma
SK-MEL-5 melanoma = system: SK-MEL-5 melanoma
MOLT-4 leukemia = system: MOLT-4 leukemia
SF-268 CNS = system: SF-268 CNS
UACC-257 melanoma = system: UACC-257 melanoma
U251 CNS = system: U251 CNS
HOP-62 NSCLC = system: HOP-62 NSCLC
EKVX NSCLC = system: EKVX NSCLC
A549 NSCLC = system: A549 NSCLC
SK-OV-3 ovarian = system: SK-OV-3 ovarian
OVCAR-3 ovarian = system: OVCAR-3 ovarian
RPMI-8226 leukemia = system: RPMI-8226 leukemia
M14 melanoma = system: M14 melanoma
ACHN renal = system: ACHN renal
UACC-62 melanoma = system: UACC-62 melanoma
A498 renal = system: A498 renal
NCI/ADR-RES ovarian = system: NCI/ADR-RES ovarian
K-562 leukemia = system: K-562 leukemia
SR leukemia = system: SR leukemia
T-47D breast = system: T-47D breast
PC-3 prostate = system: PC-3 prostate
CCRF-CEM leukemia = system: CCRF-CEM leukemia
HCT-15 colon = system: HCT-15 colon
SW-620 colon = system: SW-620 colon
OVCAR-5 ovarian = system: OVCAR-5 ovarian
SK-MEL-28 melanoma = system: SK-MEL-28 melanoma
MDA-MB-435 = system: MDA-MB-435
NCI-H23 lung = system: NCI-H23 lung
SN12C renal = system: SN12C renal
SNB-19 CNS = system: SNB-19 CNS
KM12 colon = system: KM12 colon
MCF7 breast = system: MCF7 breast
HT29 colon = system: HT29 colon
BT-549 breast = system: BT-549 breast
IGROV1 ovarian = system: IGROV1 ovarian
SF-295 CNS = system: SF-295 CNS
786-0 renal = system: 786-0 renal
MDA-MB-231 breast = system: MDA-MB-231 breast
SNB-75 CNS = system: SNB-75 CNS
NCI-H522 lung = system: NCI-H522 lung
NCI-H460 lung = system: NCI-H460 lung
HCC-2998 colon = system: HCC-2998 colon
HL-60(TB) leukemia = system: HL-60(TB) leukemia
COLO 205 colon = system: COLO 205 colon
SF-539 CNS = system: SF-539 CNS
TK-10 renal = system: TK-10 renal
CAKI-1 renal = system: CAKI-1 renal
OVCAR-4 ovarian = system: OVCAR-4 ovarian

`O=C(CCCCCCNC(=O)C(O)(O)C(F)(F)F)Nc1ccc(-c2ccccc2)cc1` was tested, and the GI50 (HOP-92 NSCLC) was 0.74 µM, the TGI (HOP-92 NSCLC) was 4.18 µM and the GI50 (NCI-H226 lung) was 7.55 µM. It also gave a TGI (NCI-H226 lung) of 26.6 µM, a GI50 (HS 578T breast) of 4.15 µM and a TGI (HS 578T breast) of 25.3 µM. For the same compound, the GI50 (OVCAR-8 ovarian) was 3.25 µM, the TGI (OVCAR-8 ovarian) was over 33.2 µM and the GI50 (UO-31 renal) was 3.11 µM. For the same compound, the TGI (UO-31 renal) was 8.88 µM, the GI50 (DU-145 prostate) was 4.78 µM and the TGI (DU-145 prostate) was 32.7 µM. It also gave a GI50 (LOX IMVI melanoma) of 1.96 µM, a TGI (LOX IMVI melanoma) of 6.29 µM and a GI50 (HCT-116 colon) of 1.27 µM. The TGI (HCT-116 colon) was 7.08 µM, the GI50 (SK-MEL-2 melanoma) was 3.31 µM and the TGI (SK-MEL-2 melanoma) was 8.97 µM. The GI50 (MALME-3M melanoma) was 1.6 µM, the TGI (MALME-3M melanoma) was 10.2 µM and the GI50 (SK-MEL-5 melanoma) was 1.94 µM. The TGI (SK-MEL-5 melanoma) was 6.27 µM, the GI50 (MOLT-4 leukemia) was 1.32 µM and the TGI (MOLT-4 leukemia) was over 33.2 µM. For the same compound, the GI50 (SF-268 CNS) was 5.98 µM, the TGI (SF-268 CNS) was 14.3 µM and the GI50 (UACC-257 melanoma) was 4.67 µM. The TGI (UACC-257 melanoma) was 14.5 µM, the GI50 (U251 CNS) was 3.62 µM and the TGI (U251 CNS) was 10.9 µM. For the same compound, the GI50 (HOP-62 NSCLC) was 4.76 µM, the TGI (HOP-62 NSCLC) was 29.4 µM and the GI50 (EKVX NSCLC) was 5.26 µM. The TGI (EKVX NSCLC) was over 33.2 µM, the GI50 (A549 NSCLC) was 6.04 µM and the TGI (A549 NSCLC) was 28.8 µM. The GI50 (SK-OV-3 ovarian) was 4.31 µM, the TGI (SK-OV-3 ovarian) was 21.6 µM and the GI50 (OVCAR-3 ovarian) was 3.39 µM. For the same compound, the TGI (OVCAR-3 ovarian) was 8.2 µM, the GI50 (RPMI-8226 leukemia) was 2.32 µM and the TGI (RPMI-8226 leukemia) was over 33.2 µM. The GI50 (M14 melanoma) was 3.82 µM, the TGI (M14 melanoma) was 12.5 µM and the GI50 (ACHN renal) was 2.85 µM. The TGI (ACHN renal) was 9.22 µM, the GI50 (UACC-62 melanoma) was 1.31 µM and the TGI (UACC-62 melanoma) was 5.39 µM. It also gave a GI50 (A498 renal) of 0.7 µM, a TGI (A498 renal) of 6.41 µM and a GI50 (NCI/ADR-RES ovarian) of 3.99 µM. It also gave a TGI (NCI/ADR-RES ovarian) of 12.4 µM, a GI50 (K-562 leukemia) of 1.58 µM and a TGI (K-562 leukemia) of over 33.2 µM. The GI50 (SR leukemia) was 1.43 µM, the TGI (SR leukemia) was over 33.2 µM and the GI50 (T-47D breast) was 2.96 µM. For the same compound, the TGI (T-47D breast) was 25.3 µM, the GI50 (PC-3 prostate) was 3.78 µM and the TGI (PC-3 prostate) was 19 µM. For the same compound, the GI50 (CCRF-CEM leukemia) was 1.84 µM, the TGI (CCRF-CEM leukemia) was over 33.2 µM and the GI50 (HCT-15 colon) was 4.73 µM. For the same compound, the TGI (HCT-15 colon) was 9.8 µM, the GI50 (SW-620 colon) was 1.8 µM and the TGI (SW-620 colon) was 7.24 µM. The GI50 (OVCAR-5 ovarian) was 1.62 µM, the TGI (OVCAR-5 ovarian) was 9.14 µM and the GI50 (SK-MEL-28 melanoma) was 2.09 µM. It also gave a TGI (SK-MEL-28 melanoma) of 8.52 µM, a GI50 (MDA-MB-435) of 3.55 µM and a TGI (MDA-MB-435) of 32.4 µM. The GI50 (NCI-H23 lung) was 4.28 µM, the TGI (NCI-H23 lung) was 13.6 µM and the GI50 (SN12C renal) was 4.21 µM. For the same compound, the TGI (SN12C renal) was 16 µM, the GI50 (SNB-19 CNS) was 4.63 µM and the TGI (SNB-19 CNS) was 10.3 µM. For the same compound, the GI50 (KM12 colon) was 3.84 µM, the TGI (KM12 colon) was 9.23 µM and the GI50 (MCF7 breast) was 5.57 µM. For the same compound, the TGI (MCF7 breast) was 30 µM, the GI50 (HT29 colon) was 3.77 µM and the TGI (HT29 colon) was over 33.2 µM. The GI50 (BT-549 breast) was 4.21 µM, the TGI (BT-549 breast) was 13.2 µM and the GI50 (IGROV1 ovarian) was 3.9 µM. It also gave a TGI (IGROV1 ovarian) of 10.6 µM, a GI50 (SF-295 CNS) of 2.53 µM and a TGI (SF-295 CNS) of 7.49 µM. It also gave a GI50 (786-0 renal) of 4.34 µM, a TGI (786-0 renal) of 11.7 µM and a GI50 (MDA-MB-231 breast) of 2.84 µM. It also gave a TGI (MDA-MB-231 breast) of 10.7 µM, a GI50 (SNB-75 CNS) of 2.92 µM and a TGI (SNB-75 CNS) of over 33.2 µM. It also gave a GI50 (NCI-H522 lung) of 3.81 µM, a TGI (NCI-H522 lung) of 20.5 µM and a GI50 (NCI-H460 lung) of 3.24 µM. For the same compound, the TGI (NCI-H460 lung) was 11.4 µM, the GI50 (HCC-2998 colon) was 4.91 µM and the TGI (HCC-2998 colon) was 9.88 µM. The GI50 (HL-60(TB) leukemia) was 2.64 µM, the TGI (HL-60(TB) leukemia) was over 33.2 µM and the GI50 (COLO 205 colon) was 4.03 µM. It also gave a TGI (COLO 205 colon) of 11.8 µM, a GI50 (SF-539 CNS) of 4.61 µM and a TGI (SF-539 CNS) of 13 µM. For the same compound, the GI50 (TK-10 renal) was 1.63 µM, the TGI (TK-10 renal) was over 33.2 µM and the GI50 (CAKI-1 renal) was 5.74 µM. It also gave a TGI (CAKI-1 renal) of 17.5 µM, a GI50 (OVCAR-4 ovarian) of 11 µM and a TGI (OVCAR-4 ovarian) of over 33.2 µM.
